Laboratory results reported in patent US9140688B2, “Sperm staining and sorting methods” (INGURAN, LLC, priority 2011, dated 2015).

Assays:
bovine sperm = assay: Post thaw percent intact acrosomes (PIA) of sex sorted bovine sperm (Example 1); type: cell-based; conditions: average over all bulls
Procedure: Sperm was collected from 10 different bulls on a routine collection schedule using an artificial vagina over the course of 4 days. The 10 bulls included both Jersey bulls and Holstein bulls. All ejaculates contained greater than 60% progressive motility and greater than 70% morphological normal sperm. Antibiotics were added within 15 minutes of collection.
Red food dye treatment 40% —A reduced volume of red food dye No. 40 control was established. Sperm was diluted to 160×10^6 sperm per ml in a modified TALP buffer, as described in Table 1, at a pH of 7.4. Samples collected from Jersey bulls were incubated with 16 μl of Hoechst 33342 per 2 ml of sample for between 45 and 60 minutes at 34° C., while samples collected from Holstein bulls were incubated 17 μl of Hoechst 33342 per 2 ml of sample for between 45 and 60 minutes at 34° C. After incubation an equal volume of a second modified TALP was added reducing the concentration to 80×10^6. The second modified TALP includes the components described in Table 1 with the addition of 4% egg yolk, 40 μM red food dye No. 40 (20 g/L) and the pH dropped to 5.5 with HCl. […]
Straws were thawed the following day for motility measurements at 0 hour and 3 hours. Percent intact acrosomes were measured as well, and the overall averages over all bulls on each day are illustrated in Table 3. […]

deer sperm = assay: Post thaw motility of bulk sorted deer sperm (Example 3); type: cell-based; conditions: 0 HR; RED TALP with 16 μL, Y6 with 14 μL Hoechst 33342
Procedure: Each of deer and elk were collected in the Tris-egg yolk catch fluid described as a catch media in Example 1, and shipped for sorting.
A portion of each of the deer and the elk were stained by the red food dye No. 40 treatment 40% with 16 μL Hoechst 33342 and the yellow food dye No. 6 treatment with 14 μL Hoechst 33342 as described in Example 1.
Samples were each bulk sorted with the same machine and parameters described in Example 1. Both sorted X and sorted Y sperm were collected into a single catch. The sorted samples were then frozen like those described in Example 1.
Frozen thawed samples were then tested for post thaw motilities and post thaw DNA fragmentation. Post thaw motilities were slightly higher in Elk sorted with a yellow quencher, while a more significant difference existed in progressive motility. In Table 10, post thaw DNA fragmentation in Elk can be seen at about double after 48 hours when red food dye No. 40 is compared to yellow food dye No. 6 as a dead quencher.

| SMILES | Average PIA (percent intact acrosomes) (bovine sperm) [%] | Post Thaw Motility Deer, Motile (deer sperm) | Post Thaw Motility Deer, Progressive (deer sperm) |
| --- | --- | --- | --- |
| COc1cc(S(=O)(=O)O)c(C)cc1N=Nc1c(O)ccc2cc(S(=O)(=O)O)ccc12 [Red 40, 6-hydroxy-5-[(2-methoxy-5-methyl-4-sulfophenyl)azo]-2-naphthalenesulfonic acid, reference compound] | 70.8 | 59.8 | 43.0 |
| O=S(=O)([O-])c1ccc(N=Nc2c(O)ccc3cc(S(=O)(=O)[O-])ccc23)cc1.[Na+].[Na+] [Yellow 6, Disodium 6-hydroxy-5-[(4-sulfophenyl)azo]-2-naphthalenesulfononate] | 71.3 | 67.5 | 53.2 |
